# Results: patent EP3800188A1, “SUBSTITUTED PYRAZOLOPYRIMIDINES AS IRAK4 INHIBITORS” (Bayer AG, priority 2019, dated 2021)
# Where two headings read alike, the source gives them in different places.
# Tests used:
# [1] = 1 µM, pH 7.4
# [2] = molecular target: T1, human IRAK4 (Homo sapiens, UniProt Q9NWZ3); assay: Human IRAK4 kinase activity inhibition assay (IRAK4 TR-FRET assay); format: biochemical; settings: 1 mM ATP, GST-human IRAK4, average or median values
# T1 construct: GST (N); made in house; host or cells: baculovirus-infected Hi5 (BTI-TN-5B1-4) insect cells
# T1 sequence (Q9NWZ3 1-460): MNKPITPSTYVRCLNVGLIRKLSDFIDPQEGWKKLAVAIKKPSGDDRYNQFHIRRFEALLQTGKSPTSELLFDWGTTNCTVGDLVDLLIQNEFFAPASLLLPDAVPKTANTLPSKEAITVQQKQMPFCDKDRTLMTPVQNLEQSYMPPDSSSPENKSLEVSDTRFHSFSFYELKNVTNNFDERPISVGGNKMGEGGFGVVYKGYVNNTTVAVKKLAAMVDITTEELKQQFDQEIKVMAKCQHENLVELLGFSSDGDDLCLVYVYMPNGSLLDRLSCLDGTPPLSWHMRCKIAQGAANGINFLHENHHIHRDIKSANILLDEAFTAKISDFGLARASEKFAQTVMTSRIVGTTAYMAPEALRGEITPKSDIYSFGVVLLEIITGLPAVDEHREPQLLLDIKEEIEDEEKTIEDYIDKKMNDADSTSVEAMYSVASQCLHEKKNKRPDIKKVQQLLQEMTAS
# Outline: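 Signal was the 665/620 nm emission ratio from a europium anti-mouse-IgG, anti-phosphoserine antibody and streptavidin-XL665 complex formed over 1 h at 22°C. It was scaled between no-enzyme (100%) and no-compound (0%) wells. Beforehand, compounds (20 µM down to 0.073 nM, 11 points) sat 15 min with roughly 0.2 nM insect-cell-expressed GST-human IRAK4 before phosphorylation of a biotinylated peptide substrate.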
# [3] = test system: human PBMCs; assay: In vitro LPS-induced cytokine (TNF-α) production in human PBMCs; format: cell-based; settings: PBMC, 0.1 µg/mL LPS, 24 hours, 30 min preincubation, read-out: activity (LPS-induced TNF-α secretion in human PBMCs)
# Description: The effect of the compounds of the general formula (I) on induced cytokine production in human PBMCs was examined.
# Cytokine production was induced here by LPS, a TLR4 ligand, which leads to activation of the IRAK4-mediated signal path.
# The human PBMCs were obtained from anti-coagulated human whole blood. To this end, 15 mL of Ficoll-Paque (Biochrom, Cat. No. L6115) were initially charged in Leucosep tubes and 20 mL of human blood were added. After centrifugation of the blood at 800 g for 15 min at room temperature, the plasma including the platelets was removed and discarded. The PBMCs were transferred into centrifugation tubes and made up with PBS (phosphate-buffered saline) (Gibco, Cat. No. 14190). The cell suspension was centrifuged at room temperature at 250 g for 10 min and the supernatant was discarded. The PBMCs were resuspended in complete medium (RPMI 1640, without L-glutamine (PAA, Cat. No. E15-039), 10% FCS; 50 U/mL penicillin, 50 µg/mL streptomycin (PAA, Cat. No. P11-010) and 1% L-glutamine (Sigma, Cat. No. G7513)). The assay was also carried out in complete medium. The PBMCs were sown in 96-well plates at a cell density of 2.5x10^5 cells/well. The compounds according to the invention were subjected to serial dilution in a constant volume of 100% DMSO and used in the assay at 8 different concentrations in the range from 10 µM to 3 nM such that the final DMSO concentration was 0.4% DMSO. Prior to the actual stimulation, the cells were then preincubated therewith for 30 min. To induce cytokine secretion, the cells were stimulated with 0.1 µg/mL LPS (Sigma, Escherichia coli 0128:B12, Cat. No. L2887) for 24 hours. Cell viability was determined using the CellTiter-Glo luminescent assay (Promega, Cat. No. G7571 (G755/G756A)) in accordance with the manufacturer's instructions. The amount of secreted TNF-α in the cell culture supernatant was determined using the Human ProInflammatory 9-Plex Tissue Culture Kit (MSD, Cat. No. K15007B) in accordance with the instructions of the manufacturer. By way of example, Example Compounds II-2, I-40, I-56, I-61 have activity ≤ 500 nM.
# [4] = Metabolic stability in dog liver microsomes; format: in vitro ADME; settings: 1 µM compound; for CLblood, dog microsomes: hepatic in vivo blood clearance calculated with well stirred liver model, '(stable)' given beside < 0.01; for Fmax, dog microsomes: maximal oral bioavailability calculated with well stirred liver model, 0.5 mg/mL protein, '(stable)' given beside 100
# Description: From the half-life the intrinsic clearances were calculated.
# [5] = Metabolic stability in human liver microsomes; settings: 1 µM compound; for CLblood, human microsomes: hepatic in vivo blood clearance calculated with well stirred liver model, '(stable)' given beside < 0.01; for Fmax, human microsomes: maximal oral bioavailability calculated with well stirred liver model, 0.5 mg/mL protein, '(stable)' given beside 100
IC50 [2] [nM],"CLblood, dog microsomes [4] [mL/min/kg]","Fmax, dog microsomes [4] [%]","CLblood, human microsomes [5] [mL/min/kg]","Fmax, human microsomes [5] [%]",SMILES,"CLblood, human microsomes [1]","Fmax, human microsomes [1]",IC50 [3] [nM]
3.46,1,97,1,95,"CS(=O)(=O)[C@H]1C[C@H](Nc2nc(N3CC(N4CCOCC4)C3)c3cnn(-c4cccc(C(F)(F)F)c4)c3n2)C1 [Example I-56, N-[trans-3-(methylsulfonyl)cyclobutyl]-4-[3-(morpholin-4-yl)azetidin-1-yl]-1-[3-(trifluoromethyl)phenyl]-1H-pyrazolo[3,4-d]pyrimidin-6-amine]",,,≤ 500
6.68,1.2,97,2.5,88,"O=S1(=O)CCC(Nc2nc(N3CC(N4CCOCC4)C3)c3cnn(-c4cccc(C(F)F)c4)c3n2)CC1 [II-2, 1-[3-(difluoromethyl)phenyl]-N-(1,1-dioxidotetrahydro-2H-thiopyran-4-yl)-4-[3-(morpholin-4-yl)azetidin-1-yl]-1H-pyrazolo[3,4-d]pyrimidin-6-amine]",,,≤ 500

SMILES,IC50 [2] [nM],"CLblood, dog microsomes [4] [mL/min/kg]","Fmax, dog microsomes [4] [%]","CLblood, human microsomes [5] [mL/min/kg]","Fmax, human microsomes [5] [%]","CLblood, human microsomes [1]","Fmax, human microsomes [1]",IC50 [3] [nM]
"O=C1C[C@H](Nc2nc(N3CC(CC(=O)N4CC5CC(C4)O5)C3)c3cnn(-c4cccc(C(F)(F)F)c4)c3n2)CN1 [Example I-52, (4S)-4-[(4-{3-[2-(6-oxa-3-azabicyclo[3.1.1]heptan-3-yl)-2-oxoethyl]azetidin-1-yl}-1-[3-(trifluoromethyl)phenyl]-1H-pyrazolo[3,4-d]pyrimidin-6-yl)amino]pyrrolidin-2-one]",7.99,,,,,< 0.01 (stable) L/h/kg,100 (stable) %,
